Laboratory results taken from patent US20130158070A1, “CONJUGATES OF POLYUNSATURATED FATTY ACIDS AND AMINE-CONTAINING COMPOUNDS AND USES THEREOF” (priority 2010, published 2013).

Legend:
[1] = tested on: oxazolone-induced allergic dermatitis; assay: Murine oxazolone-induced allergic dermatitis; format: in vivo, mice; details: hematoxylin and eosin stained sections
Source text: An allergic form of contact dermatitis can be induced in mice by repeated epicutaneous application of the chemical sensitizer oxazolone. This leads to local augmented thickness and weight increase of the skin area where the rechallenge was applied; from the histological point of view, oxazolone-induced dermatitis is characterized by severe mononuclear cell infiltration of the dermis with in situ production of the type 1 proinflammatory cytokines TNF-alpha, IL-1alpha and IFN-gamma. These well-defined mechanistic pathways of inflammatory skin damage make oxazolone-dermatitis a useful in vivo tool for pathogenic studies and a pharmacodynamic parameter to screen drugs of potential utility in counteracting type 1 cytokine dependent cutaneous immunoinflammatory responses such as those found in some forms of bullous disorders, cutaneous vasculitis and psoriasis.
The efficacy of MWL001 in the treatment of Murine oxazolone-induced allergic dermatitis was evaluated. MWL001 and DEX were administered one hour after the second challenge with oxazolone.
The mice were sensitized on day 0 by a single application of 10 ∞l of 2% oxazolone (Sigma Chimica, Milan, Italy) in ethanol to the inner and outer surface of the left ear. The disease was elicited by local rechallenge on day 7 with 15% oxazolone. The right ear was treated with the vehicle of oxazolone (acetone). Eighteen hours after […] the mice are sacrificed under ether anesthesia and both the right and left ears were excised.
Inflammation was assessed as the percentage increase in ear thickness and/or ear weight in the treated left ear vs. the vehicle-treated right ear. Ear thickness was measured with a digital calliper. The extent of the inflammation was quantified as follows: ear swelling (%)=100×(a−b)/b, where a is thickness/weight of the left (treated) ear and b is the thickness/weight of the right (untreated) ear.
Ear tissue samples were fixed with 4% formaldehyde in phosphate-buffered saline (PBS) and embedded in paraffin. Thereafter, 6-μm sections were deparaffinized with xylene, stained with hematoxylin-eosin and observed with a Zeiss microscope (Jena, Germany).

[2] = tested on: DNBS-induced colitis; assay: DNBS-induced experimental colitis in mice, oral administration; format: in vivo; details: day four after DNBS, MWL001 50 mg/kg oral daily
Protocol: In this study, the effect of MWL001 on pro-inflammatory mediators in DNBS-induced experimental colitis in mice was evaluated. In particular it was observed that there was no expression of TNF-α, CD4, TGF-13, CD25 in the colon tissue from sham-treated mice. MWL001 and DEX were administered orally and daily starting at six hours after the DNBS challenge.
Colitis was induced with a very low dose of 2,4-dinitrobenzene sulfonic acid (DNBS) (4 mg per mouse) by using a modification of the method first described in mice. […] Mice were anesthetized by Enflurane. DNBS (4 mg in 100 μl of 50% ethanol) was injected into the rectum through a catheter inserted 4.5 cm proximally to the anus. The carrier alone (100 μl of 50% ethanol) was administered in control experiments. Thereafter, the animals were kept for 15 minutes in a Trendelenburg position to avoid reflux. […] On Day four, the animals were weighed and anaesthetized with chloral hydrate, and their abdomen was opened by a midline incision. The colon was removed, freed from surrounding tissues, opened along the antimesenteric border and processed for histology.
TNF-α and IL-6 levels were evaluated and colon tissues collected at four days after DNBS administration. Briefly, portions of terminal colon were homogenized as previously described in phosphate-buffered saline (PBS, ICN Biomedicals, Milan, Italy) containing two mmol/L of phenyl-methyl sulfonyl fluoride (PMSF, Sigma Chemical Co.). The assay was carried out using a colorimetric, commercial kit (R&D system Milan, Italy) according to the manufacturer instructions. All cytokines determinations were performed in duplicate serial dilutions.
At four days after DNBS administration, colon tissues were fixed in 10% (w/v) PBS-buffered formaldehyde and 7 μm sections were prepared from paraffin embedded tissues. After deparaffinization, endogenous peroxidase was quenched with 0.3% (v/v) hydrogen peroxide in 60% (v/v) methanol for 30 min. The sections were permeabilized with 0.1% (w/v) Triton X-100 in PBS for 20 min. Non-specific adsorption was minimized by incubating the section in 2% (v/v) normal goat serum in PBS for 20 min. Endogenous biotin or avidin binding sites were blocked by sequential incubation for 15 min with biotin and avidin (Vector Laboratories, Burlingame, Calif.), respectively. Sections were incubated overnight with: 1) purified polyclonal antibody directed towards CD4 (Santa Cruz Biotechnology, 1:500 in PBS, v/v) or 2) with purified anti-CD25 (Santa Cruz Biotecnology 1:500 in PBS, w/v) or 3) with anti- TNF-α polyclonal antibody (Santa Cruz Biotechnology, N-19:sc-1350, 1:500 in PBS, v/v) or 4) with anti-TGF-β polyclonal antibody (Santa Cruz, 1:500 in PBS, v/v).
Sections were washed with PBS, and incubated with a secondary antibody. Specific labelling was detected with a biotin-conjugated goat anti-rabbit IgG and avidin-biotin peroxidase complex (Vector Laboratories, Burlingame, Calif.).

[3] = tested on: collagen induced arthritis; assay: Collagen induced arthritis (CIA), arthritis score, paw thickness, body weight; format: in vivo, DBA/1J mice; details: 50 mg/kg IP; for day from which arthritis score (AS) increases: 3 times a week, 12 administrations; for CIA development: overall conclusion; for arthritis thickness index (ATI) increase: from day 0 to day 70, groups 1M DHA-Tau, 2M DHA, 4M Ibuprofen
Protocol: In a different study, 34 male 8-10 weeks old DBA/1J mice were used. Animals were fed ad libitum a commercial rodent diet (Teklad Certified Global 18% Protein Diet cat #: 106S8216). Animals had free access to acidified drinking water (pH between 2.5 and 3.0) obtained from the municipality supply.
The effect of MWL-002 (conjugate of DHA and taurine) was tested and compared to that of Ibuprofen. Cremophore EL was used as a vehicle.
On day 0, each mouse was anesthetized by inhalation of 3% isofluorane and injected intradermally at the base of the tail with 0.1 ml of emulsion containing 100 μg collagen, using a 1-ml glass syringe with a 26-guade needle. Booster injection was performed at day 15 to the same injection site.
The tested materials were administered 3 times a week, via IP for a total of 12 administrations starting on day 1.
Observations for clinical score were performed twice weekly until study termination.
The severity of arthritis was scored based on the level of inflammation in each of the four paws and recorded as one of five grades according to the following:
Hind paw thickness (edema) was measured by digital caliper once a week until Day 14 and thereafter twice weekly and prior to study termination. Two cross sectional areas were marked, one on the paw and the other at the ankle (tarsal joint). Two measurements were made on each section, perpendicular to each other. The results obtained were calculated as the average areas of both hind limbs per animal.
Body weight was measured prior to dosing, during the study twice a week and prior to study termination.

[4] = target: T1, COX-2 (Homo sapiens, UniProt P35354); assay: COX-2 inhibition, enzyme immunoassay (EIA); format: biochemical; details: ratio of COX-1 IC50 to COX-2 IC50
T1 sequence (P35354 18-604): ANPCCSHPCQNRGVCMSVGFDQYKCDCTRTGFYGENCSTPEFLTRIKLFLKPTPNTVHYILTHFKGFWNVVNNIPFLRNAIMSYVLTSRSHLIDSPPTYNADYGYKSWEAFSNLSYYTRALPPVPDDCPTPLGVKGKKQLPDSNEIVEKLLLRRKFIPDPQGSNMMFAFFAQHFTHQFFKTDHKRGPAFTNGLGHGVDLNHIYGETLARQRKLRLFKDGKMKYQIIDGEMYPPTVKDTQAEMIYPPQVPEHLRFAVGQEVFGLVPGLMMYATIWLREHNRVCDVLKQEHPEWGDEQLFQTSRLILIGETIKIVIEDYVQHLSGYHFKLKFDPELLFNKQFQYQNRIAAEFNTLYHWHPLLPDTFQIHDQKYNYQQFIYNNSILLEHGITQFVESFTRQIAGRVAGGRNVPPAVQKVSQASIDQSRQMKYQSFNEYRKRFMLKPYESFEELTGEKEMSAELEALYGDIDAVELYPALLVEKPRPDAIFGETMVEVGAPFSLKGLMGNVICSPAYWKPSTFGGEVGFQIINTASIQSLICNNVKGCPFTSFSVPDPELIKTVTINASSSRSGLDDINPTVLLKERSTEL
Protocol: Exemplary conjugates as described herein were tested in vitro for inhibition of COX-1 and COX-2, using an enzyme immunoassay (EIA), as follows.
Cyclooxygenase catalyzes the first step in the biosynthesis of arachidonic acid (AA) to PGH2. PGF2α, produced from PGH2 by reduction with stannous chloride, is measured by enzyme immunoassay (ACETM competitive EIA).
Stock solutions of test compounds were dissolved in a minimum volume of DMSO. Briefly, to a series of supplied reaction buffer solutions (960 μl, 0.1M Tris-HCl pH 8.0 containing 5 mM EDTA and 2 mM phenol) with either COX-1 or COX-2 (10 μl) enzyme in the presence of heme (10 μl) were added 10 μl of various concentrations of test drug solutions (0.01, 0.1, 1, 10, 50, and 100 μM in a final volume of 1 ml). These solutions were incubated for a period of 5 minutes at 37° C. after which 10 μL of AA (100 μM) solution were added and the COX reaction was stopped by the addition of 50 μl of 1M HCl after 2 minutes. PGF2α, produced from PGH2 by reduction with stannous chloride was measured by enzyme immunoassay.
This assay is based on the competition between PGs and a PG-acetylcholinesterase conjugate (PG tracer) for a limited amount of PG antiserum. The amount of PG tracer that is able to bind to the PG antiserum is inversely proportional to the concentration of PGs in the wells since the concentration of PG tracer is held constant while the concentration of PGs varies. The concentration of the test compound causing 50% inhibition (IC50, μM) was calculated from the concentration-inhibition response curve (duplicate determinations).

## C[C@@H]1C[C@H]2[C@@H]3CCC4=CC(=O)C=C[C@]4(C)[C@@]3(F)[C@@H](O)C[C@]2(C)[C@@]1(O)C(=O)CO [DEX, dexamathasone, reference compound]
[1]
  histology: ear thickness and inflammatory cells in epidermis and dermis: markedly reduced
[2]; colorimetric kit
  IL-6 colon levels: significant reduction
  TNF-α colon levels: significant reduction
[2]; immunostaining
  expression of CD4 in colon tissue: significantly reduced
  expression of CD25 in colon tissue: significantly reduced
  expression of TGF-β in colon tissue: significantly reduced
  expression of TNF-α in colon tissue: significantly reduced

## CC/C=C\C/C=C\C/C=C\C/C=C\C/C=C\C/C=C\CCC(=O)O [DHA, all-cis-4,7,10,13,16,19-docosahexaenoic acid]
[3]
  day from which arthritis score (AS) increases: 40 days
  CIA development: not substantially effective
  arthritis thickness index (ATI) increase: 180%

## CC(C)Cc1ccc(C(C)C(=O)O)cc1 (centres unmarked) [Ibuprofen]
[3]
  day from which arthritis score (AS) increases: 40 days
  CIA development: not substantially effective
  arthritis thickness index (ATI) increase: 190%

## CCCCCCCC/C=C\CCCCCCCC(=O)n1cc(CC(=O)O)c2cc(O)ccc21 [MWL-007, N-oleoyl-5-hydroxy-indol-3-yl-acetic acid]
[4]
  Ratio (COX ½): 15.83
